Laboratory results as given in patent US10206399B2, “Herbicidal composition comprising uracil compound as active ingredient” (Dongbu Farm Hannong Co., Ltd., priority 2012, dated 2019).
Like-named read-outs stand apart in the source and are kept apart here.

How the values were obtained:
[1] = test system: Alopecurus aequalis; experiment: Dry field farming herbicidal composition test, plant mortality; type: in vivo; settings: in % (unit assumed)
From the text: (§1) X is % damage by uracil compound (a) of formula 1 at the rate of application of p kg/ha; Y is % damage by conventional herbicidal compound (b) at the rate of application of q kg/ha; and E is the expected damage caused by compounds (a) and (b) at a rate of application of p and q kg/ha.
(§2) The expected activity for a given combination of two herbicides can be calculated using equation 1 above.

[2] = test system: Porippa islandica; experiment: as above; type: in vivo
From the text: as §1, §2

[3] = test system: Capsella bursapastoris; experiment: as above; type: in vivo; settings: in % (unit assumed)
From the text: as §1, §2

[4] = test system: Lamium amplexicaule; experiment: as above; type: in vivo; settings: in % (unit assumed)
From the text: as §1, §2

[5] = test system: Echinochloa crus; experiment: as above; type: in vivo
From the text: as §1, §2

[6] = test system: Digitaria sanguinalis; experiment: as above; type: in vivo
From the text: as §1, §2

[7] = test system: Abutilon theophrasti; experiment: as above; type: in vivo
From the text: as §1, §2

[8] = test system: Aeschynomene indica; experiment: as above; type: in vivo
From the text: as §1, §2

[9] = test system: Monochoria vaginalis; experiment: Paddy field farming herbicidal composition test, plant mortality; type: in vivo; settings: Pontederia vaginalis, read-out: Monochoria vaginalis mortality (measured value)
From the text: as §1, §2

[10] = test system: Ludwigia prostrate; experiment: as above; type: in vivo
From the text: as §1, §2

[11] = test system: corn
[12] = test system: wheat; experiment: Dry field farming herbicidal composition test, plant mortality (crop)
From the text: as §1, §2

[13] = test system: rice plant; experiment: Paddy field farming herbicidal composition test, plant mortality (crop)
From the text: as §1, §2

[14] = Echinochloa, read-out: Echinochloa crus mortality, measured value
[15] = Digitaria sanguinalis, read-out: Digitaria sanguinalis mortality, measured value
[16] = Abutilon theophrasti, read-out: Abutilon theophrasti mortality, measured value
[17] = Aeschynomene indica, read-out: Aeschynomene indica mortality, measured value

Compound: Cc1nn(-c2cc(CC(Cl)C(=O)O)c(Cl)cc2F)c(=O)n1C(F)F (stereo not shown) [Carfentrazone]
- Alopecurus aequalis mortality, measured value ([1]; 1 g/ha): 0
- Alopecurus aequalis mortality, measured value ([1]; 2 g/ha): 0
- Alopecurus aequalis mortality, measured value ([1]; 4 g/ha): 0
- Porippa islandica mortality, measured value ([2]; 1 g/ha): 5
- Porippa islandica mortality, measured value ([2]; 2 g/ha): 15
- Porippa islandica mortality, measured value ([2]; 4 g/ha): 40
- Capsella bursapastoris mortality, measured value ([3]; 1 g/ha): 0
- Capsella bursapastoris mortality, measured value ([3]; 2 g/ha): 15
- Capsella bursapastoris mortality, measured value ([3]; 4 g/ha): 35
- Lamium amplexicaule mortality, measured value ([4]; 1 g/ha): 5
- Lamium amplexicaule mortality, measured value ([4]; 2 g/ha): 20
- Lamium amplexicaule mortality, measured value ([4]; 4 g/ha): 40
- Echinochloa crus mortality, measured value ([5]; 1 g/ha): 0
- Echinochloa crus mortality, measured value ([5]; 2 g/ha): 0
- Echinochloa crus mortality, measured value ([5]; 4 g/ha): 0
- pest or weed control at 5 g/ha [5, 14]: 0%
- pest or weed control at 10 g/ha [5, 14]: 5%
- Digitaria sanguinalis mortality, measured value ([6]; 1 g/ha): 0
- Digitaria sanguinalis mortality, measured value ([6]; 2 g/ha): 0
- Digitaria sanguinalis mortality, measured value ([6]; 4 g/ha): 0
- pest or weed control at 5 g/ha [6, 15]: 0%
- pest or weed control at 10 g/ha [6, 15]: 5%
- Abutilon theophrasti mortality, measured value ([7]; 1 g/ha): 10
- Abutilon theophrasti mortality, measured value ([7]; 2 g/ha): 25
- Abutilon theophrasti mortality, measured value ([7]; 4 g/ha): 45
- pest or weed control at 5 g/ha [7, 16]: 50%
- pest or weed control at 10 g/ha [7, 16]: 75%
- Aeschynomene indica mortality, measured value ([8]; 1 g/ha): 5
- Aeschynomene indica mortality, measured value ([8]; 2 g/ha): 20
- Aeschynomene indica mortality, measured value ([8]; 4 g/ha): 40
- pest or weed control at 5 g/ha [8, 17]: 45%
- pest or weed control at 10 g/ha [8, 17]: 70%
- pest or weed control at 5 g/ha [9]: 20%
- pest or weed control at 10 g/ha [9]: 45%
- Ludwigia prostrate mortality (measured value) ([10]; 5 g/ha): 35%
- Ludwigia prostrate mortality (measured value) ([10]; 10 g/ha): 50%
- Corn mortality (measured value) ([11]; 1 g/ha): 0
- Corn mortality (measured value) ([11]; 2 g/ha): 0
- Corn mortality (measured value) ([11]; 4 g/ha): 0
- Corn mortality, measured value ([11]; 5 g/ha): 0
- Corn mortality, measured value ([11]; 10 g/ha): 1
- Wheat mortality, measured value ([12]; 1 g/ha): 0
- Wheat mortality, measured value ([12]; 2 g/ha): 0
- Wheat mortality, measured value ([12]; 4 g/ha): 0
- Rice plant mortality (measured value) ([13]; 5 g/ha): 0
- Rice plant mortality (measured value) ([13]; 10 g/ha): 0
